Measurements published in US20050282743A1, “Molecular interactions in cells” (Arbor Vita Corporation, priority 2001, published 2005).
Peptide text beside a SMILES is read from it. * marks the point of attachment. Biotin = O=C1N[C@H]2[C@H](CS[C@H]2CCCCC(=O)*)N1

Target: T1, PDZ protein (GST-PDZ fusion) (Homo sapiens, UniProt Q07157)
T1 construct: made in house; host or cells: E. coli (DH5alpha, BL21 or JM109)
Assay: G' assay (10 uM PL peptide), results of TABLE 7 and TABLE 12
Type: binding
Procedure, shortened: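 Biotin-PL peptide (N-term label), 10 uM vs GST-PDZ; protein 5 ug/ml by default. A450 nm binned: 1 = 0-1, 2 = 1-2, 3 = 2-3, 4 = 3-4, 5 = >4 on >2 repeats, 0 = no binding.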

T1 sequence (Q07157 whole entry, the tested form may be a part): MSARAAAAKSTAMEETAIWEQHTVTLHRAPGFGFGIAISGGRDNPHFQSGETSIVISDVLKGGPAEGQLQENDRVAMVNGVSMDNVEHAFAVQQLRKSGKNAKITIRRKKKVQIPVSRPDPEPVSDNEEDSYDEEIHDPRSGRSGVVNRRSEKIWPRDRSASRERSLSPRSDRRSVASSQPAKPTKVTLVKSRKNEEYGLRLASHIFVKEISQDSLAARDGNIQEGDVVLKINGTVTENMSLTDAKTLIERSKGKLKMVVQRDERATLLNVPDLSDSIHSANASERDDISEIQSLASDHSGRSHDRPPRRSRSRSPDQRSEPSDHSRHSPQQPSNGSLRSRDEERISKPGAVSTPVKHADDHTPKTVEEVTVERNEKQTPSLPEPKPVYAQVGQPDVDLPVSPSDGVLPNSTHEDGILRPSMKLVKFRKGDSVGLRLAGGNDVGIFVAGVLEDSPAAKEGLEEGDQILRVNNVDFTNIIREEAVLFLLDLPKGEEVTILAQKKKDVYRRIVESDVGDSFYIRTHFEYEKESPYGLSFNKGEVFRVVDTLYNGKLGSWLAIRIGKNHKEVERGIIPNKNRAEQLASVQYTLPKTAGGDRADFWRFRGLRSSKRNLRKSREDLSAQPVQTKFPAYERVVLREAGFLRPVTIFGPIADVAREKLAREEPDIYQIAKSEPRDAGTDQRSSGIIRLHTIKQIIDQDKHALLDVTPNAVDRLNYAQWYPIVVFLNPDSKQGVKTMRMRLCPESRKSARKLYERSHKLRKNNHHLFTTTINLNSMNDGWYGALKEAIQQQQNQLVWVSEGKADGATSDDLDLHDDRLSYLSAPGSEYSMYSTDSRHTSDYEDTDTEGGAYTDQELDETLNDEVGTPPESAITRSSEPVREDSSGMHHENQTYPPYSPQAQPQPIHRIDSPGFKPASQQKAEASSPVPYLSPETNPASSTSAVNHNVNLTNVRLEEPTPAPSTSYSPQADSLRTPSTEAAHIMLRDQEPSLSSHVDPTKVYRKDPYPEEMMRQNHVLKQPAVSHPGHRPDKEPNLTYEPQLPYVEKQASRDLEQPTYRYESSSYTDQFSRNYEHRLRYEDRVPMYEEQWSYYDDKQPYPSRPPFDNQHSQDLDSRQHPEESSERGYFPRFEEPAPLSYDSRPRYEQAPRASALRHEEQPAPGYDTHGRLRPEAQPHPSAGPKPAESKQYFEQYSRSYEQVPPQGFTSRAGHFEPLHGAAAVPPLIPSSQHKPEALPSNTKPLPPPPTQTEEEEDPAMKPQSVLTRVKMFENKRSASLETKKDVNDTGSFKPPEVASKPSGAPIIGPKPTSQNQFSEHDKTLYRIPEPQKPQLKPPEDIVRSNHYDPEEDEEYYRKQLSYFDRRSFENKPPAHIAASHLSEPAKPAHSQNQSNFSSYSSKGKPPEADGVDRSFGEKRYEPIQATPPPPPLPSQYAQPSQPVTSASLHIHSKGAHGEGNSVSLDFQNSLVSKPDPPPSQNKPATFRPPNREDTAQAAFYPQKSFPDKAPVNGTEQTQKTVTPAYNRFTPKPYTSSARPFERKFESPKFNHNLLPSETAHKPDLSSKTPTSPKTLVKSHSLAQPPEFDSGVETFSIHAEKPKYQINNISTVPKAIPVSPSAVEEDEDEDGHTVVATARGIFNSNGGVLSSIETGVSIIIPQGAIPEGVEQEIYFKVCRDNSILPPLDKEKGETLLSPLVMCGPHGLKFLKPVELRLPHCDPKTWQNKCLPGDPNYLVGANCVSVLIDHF

CC(C)C[C@H](NC(=O)CNC(=O)[C@@H](NC(=O)[C@H](CO)NC(=O)[C@H](CC(N)=O)NC(=O)[C@H](Cc1ccccc1)NC(=O)CNC(=O)[C@H](C)NC(=O)[C@H](C)NC(=O)[C@H](Cc1ccccc1)NC(=O)[C@@H](NC(=O)CCCC[C@@H]1SC[C@@H]2NC(=O)N[C@@H]21)[C@@H](C)O)[C@@H](C)O)C(=O)N1CCC[C@H]1C(=O)N[C@@H](Cc1c[nH]cn1)C(=O)N[C@@H](CO)C(=O)N[C@H](C(=O)N[C@H](C(=O)N[C@@H](CCCNC(=N)N)C(=O)N[C@H](C(=O)O)C(C)C)[C@@H](C)O)[C@@H](C)O [Neuroligin] (Biotin-TFAAGFNSTGLPHSTTRV-OH; C-terminus assumed)
Classification (PDZ ZO-1, PDZ Domain 1): 1 (A450 nm 0-1)

CC[C@H](C)[C@H](NC(=O)[C@H](C)NC(=O)[C@H](CC(C)C)NC(=O)[C@H](Cc1c[nH]c2ccccc12)NC(=O)[C@H](Cc1c[nH]cn1)NC(=O)[C@H](CCC(N)=O)NC(=O)[C@H](CC(C)C)NC(=O)[C@H](CCC(N)=O)NC(=O)[C@H](Cc1ccccc1)NC(=O)[C@H](CCC(N)=O)NC(=O)[C@H](CCCNC(=N)N)NC(=O)[C@@H](NC(=O)[C@H](CC(=O)O)NC(=O)[C@H](CCCNC(=N)N)NC(=O)[C@H](CCC(N)=O)NC(=O)[C@H](C)NC(=O)[C@@H](NC(=O)[C@H](CC(C)C)NC(=O)[C@H](Cc1c[nH]cn1)NC(=O)[C@H](Cc1c[nH]cn1)NC(=O)CCCC[C@@H]1SC[C@@H]2NC(=O)N[C@@H]21)C(C)C)[C@@H](C)CC)C(=O)O [noradrenaline transporter] (Biotin-HHLVAQRDIRQFQLQHWLAI-OH; C-terminus assumed)
Classification (PDZ ZO-1, PDZ Domain 2): 2 (A450 nm 1-2)

CC[C@H](C)[C@H](NC(=O)[C@H](Cc1ccc(O)cc1)NC(=O)[C@H](CC(C)C)NC(=O)[C@H](CCC(N)=O)NC(=O)[C@H](Cc1c[nH]cn1)NC(=O)[C@H](CO)NC(=O)[C@H](C)NC(=O)[C@H](CC(C)C)NC(=O)[C@@H](NC(=O)[C@H](CC(=O)O)NC(=O)[C@H](CCSC)NC(=O)[C@H](Cc1ccccc1)NC(=O)[C@@H]1CCCN1C(=O)[C@H](CCCNC(=N)N)NC(=O)[C@@H](NC(=O)[C@H](CC(C)C)NC(=O)[C@H](CC(N)=O)NC(=O)[C@H](CC(=O)O)NC(=O)[C@@H](NC(=O)[C@H](CO)NC(=O)CCCC[C@@H]1SC[C@@H]2NC(=O)N[C@@H]21)[C@@H](C)O)C(C)C)[C@@H](C)O)C(=O)O [presenilin-2] (Biotin-STDNLVRPFMDTLASHQLYI-OH; C-terminus assumed)
Classification (PDZ ZO-1, PDZ Domain 1): 1 (A450 nm 0-1)

CC(C)C[C@H](NC(=O)[C@H](Cc1c[nH]c2ccccc12)NC(=O)[C@H](Cc1c[nH]cn1)NC(=O)[C@H](CCCNC(=N)N)NC(=O)[C@H](CC(C)C)NC(=O)[C@@H](NC(=O)[C@H](Cc1ccccc1)NC(=O)[C@H](CCC(N)=O)NC(=O)[C@H](CCCNC(=N)N)NC(=O)[C@@H](NC(=O)[C@H](CCC(=O)O)NC(=O)CNC(=O)[C@H](CCCNC(=N)N)NC(=O)[C@H](CC(=O)O)NC(=O)[C@@H](NC(=O)[C@H](CC(C)C)NC(=O)[C@H](CCC(=O)O)NC(=O)[C@H](CCCNC(=N)N)NC(=O)CCCC[C@@H]1SC[C@@H]2NC(=O)N[C@@H]21)C(C)C)C(C)C)[C@@H](C)O)C(=O)N[C@@H](CCCCN)C(=O)N[C@H](C(=O)O)C(C)C [Dopamine transporter (Na+-dependent)] (Biotin-RELVDRGEVRQFTLRHWLKV-OH; C-terminus assumed)
Classification (PDZ ZO-1, PDZ Domain 2): 1 (A450 nm 0-1)

CC[C@H](C)[C@H](NC(=O)[C@H](Cc1ccc(O)cc1)NC(=O)[C@@H](NC(=O)[C@@H]1CCCN1C(=O)[C@H](CCC(N)=O)NC(=O)[C@H](CCC(=O)O)NC(=O)[C@H](CCC(N)=O)NC(=O)[C@H](C)NC(=O)[C@@H](NC(=O)[C@H](CC(C)C)NC(=O)[C@H](CC(C)C)NC(=O)[C@H](CCCNC(=N)N)NC(=O)[C@H](Cc1ccc(O)cc1)NC(=O)[C@H](CCSC)NC(=O)[C@H](C)NC(=O)[C@H](C)NC(=O)[C@@H]1CCCN1C(=O)[C@H](CCSC)NC(=O)[C@@H](NC(=O)[C@H](CCCCN)NC(=O)CCCC[C@@H]1SC[C@@H]2NC(=O)N[C@@H]21)[C@@H](C)O)[C@@H](C)O)C(C)C)C(=O)O [MINT-1] (Biotin-KTMPAAMYRLLTAQEQPVYI-OH; C-terminus assumed)
Classification (PDZ ZO-1, PDZ Domain 1): 1 (A450 nm 0-1)
